≈ marks a conversion by molar mass, not a printed value.
Tests used:
Type in all cases: cell-based
[1] = viability of cells in the human mixed lymphocyte reaction, M.T.T. metabolism
Method: (§1) The pure compound discodermolide I, was tested for immunosuppressive effects on the MLR and LCV assays using murine splenocytes and in the human MLR and mitogen stimulation assays, using human peripheral blood lymphocytes (PBL). Cellular proliferation was determined using incorporation of ^3 H-thymidine.
^2 % Viable cells as measured by M.T.T. metabolism

[2] = tested on: human peripheral blood lymphocytes (PBL); test: human mixed lymphocyte reaction (MLR), 3H-thymidine incorporation; conditions: for CPM (counts per minute of incorporated 3H-thymidine): control 48064
Method: as §1
^1 Counts per minute of incorporate ^3 Hthymidine

[3] = tested on: murine P388 leukemia cells; test: P388 cytotoxicity (antiproliferative effect, MTT); conditions: Mus musculus, 48-h exposure
Method: The crude ethanolic extract of the sponge and the pure compound I were tested for toxicity against murine P388 leukemia cells. P388 cells obtained from Dr. J. Mayo, National Cancer Institute, Bethesda, MD, were maintained in Roswell Park Memorial Institute (RPMI) medium 1640 supplemented with 10% horse serum. All cell lines were cultured in plastic tissue culture flasks and kept in an incubator at 37° C. in humidified air containing 5% CO2. Antibiotic-free stock cultures of P388 cells were subcultured to 10^5 cells/ml by dilution in fresh growth medium at 2 to 3 day intervals. The mean generation time of primary cultures was 14 to 17 hr.
To assess the antiproliferative effects of agents against P388 cells, 200 μl cultures (96-well tissue culture plates, Nunc, Denmark) were established at 1×10^5 cells/ml in drug-free medium or medium containing the crude extract at a final dilution of 1:500 or discodermolide at various concentrations. Solvent for all dilutions was methanol, which was removed from plates under vacuum. All experimental cultures were initiated in medium containing Gentamycin sulfate (50 μg/ml; Schering Corporation, Kenilworth, NJ). After 48-h exposures, P388 cells were enumerated using 3-[4,5-Dimethylthiazol-2-yl]-2,5-diphenyltetrazolium bromide (MTT) as described below (M. C. Alley, et al., Cancer Res. 48:589, 1988).
To quantitate the effects on cell proliferation, 75 μl of warm growth medium containing 5 mg/ml MTT was added to each well and cultures were returned to the incubator for 90 minutes. To spectrophotometrically quantitate formation of reduced formazan, plates were centrifuged (900×g, 5 minutes), culture fluids removed by aspiration, and 200 μl of acidified isopropanol (2 ml concentrated HCl/liter isopropanol) added per well. The absorbance of the resulting solutions were measured at 570 nm with a plate reader (MR700 Microplate Reader, Dynatech, Laboratories, Chantilly, Va.). […] A linear relationship between P388 cell number and formazan production was found over the range of cell densities observed in these experiments.

[4] = tested on: human peripheral blood lymphocytes (PBL); test: Con A mitogenesis of human lymphocytes (mitogen stimulation assay); conditions: for Con A (counts per minute of incorporated 3H-thymidine): Con A 10.0 μg/ml, control 262000
Method: as §1
^1 Counts per minute of incorporated ^3 Hthymidine. Conc. of Con

[5] = tested on: human peripheral blood lymphocytes (PBL); test: PHA mitogenesis of human lymphocytes (mitogen stimulation assay); conditions: for PHA (counts per minute of incorporated 3H-thymidine): PHA 10.0 μg/ml, control 412200
Method: as §1
^2 Counts per minute of incorporated ^3 Hthymidine. Conc. of PHA

[6] = viability of human PBL in the Con A and PHA stimulation assays; conditions: peripheral blood lymphocytes, 50 and 25 μg/ml
Method: as §1

[7] = murine lymphocyte viability assay (LCV), 3H-thymidine incorporation; conditions: mouse, splenocytes, read-out: % LCV Control (percent of the control LCV response)
Method: as §1

murine splenocytes [8] = test: as above
Method: as §1

murine splenocytes [9] = test: murine two-way mixed lymphocyte reaction (MLR), 3H-thymidine incorporation
Method: as §1

[10] = 50 and 25 μg/ml, mitogen 10 μg/ml

C=C/C=C\C(C)C(OC(N)=O)C(C)C(O)C(C)C/C(C)=C\C(C)C(O)C(C)/C=C\C(O)CC1OC(=O)C(C)C(O)C1C (single isomer, unassigned) [Discodermolide, discodermolide]
viability ([1]; peripheral blood lymphocytes, 0.4 μg/ml, read-out: % Viability (% viable cells as measured by M.T.T. metabolism)): 115%
viability ([1]; peripheral blood lymphocytes, 1.6 μg/ml, read-out: % Viability (% viable cells as measured by M.T.T. metabolism)): 110%
viability ([1]; peripheral blood lymphocytes, 3.1 μg/ml, read-out: % Viability (% viable cells as measured by M.T.T. metabolism)): 94%
viability ([1]; peripheral blood lymphocytes, 6.3 μg/ml, read-out: % Viability (% viable cells as measured by M.T.T. metabolism)): 94%
viability ([1]; peripheral blood lymphocytes, 12.5 μg/ml, read-out: % Viability (% viable cells as measured by M.T.T. metabolism)): 94%
viability ([1]; peripheral blood lymphocytes, 25 μg/ml, read-out: % Viability (% viable cells as measured by M.T.T. metabolism)): 102%
viability ([1]; peripheral blood lymphocytes, 50 μg/ml, read-out: % Viability (% viable cells as measured by M.T.T. metabolism)): 204%
viability ([1]; peripheral blood lymphocytes, 50, 25, 12.5, 6.3, 3.1 and 1.6 μg/ml, read-out: viability in the human MLR): > 94%
CPM (counts per minute of incorporated 3H-thymidine) ([2]; 0.4 μg/ml): 64211 CPM
CPM (counts per minute of incorporated 3H-thymidine) ([2]; 0.8 μg/ml): 49509 CPM
CPM (counts per minute of incorporated 3H-thymidine) ([2]; 1.6 μg/ml): 26336 CPM
CPM (counts per minute of incorporated 3H-thymidine) ([2]; 3.1 μg/ml): 8532 CPM
CPM (counts per minute of incorporated 3H-thymidine) ([2]; 6.3 μg/ml): 4996 CPM
CPM (counts per minute of incorporated 3H-thymidine) ([2]; 12.5 μg/ml): 2091 CPM
CPM (counts per minute of incorporated 3H-thymidine) ([2]; 25 μg/ml): 1728 CPM
CPM (counts per minute of incorporated 3H-thymidine) ([2]; 50 μg/ml): 1932 CPM
immunosuppressive activity in the human MLR (in words) ([2]; 50, 25, 12.5, 6.3, 3.1 and 1.6 μg/ml): immunosuppressive
inhibition at 0.125 µg/mL ([3]; 0.125 μg/ml): 2%
inhibition at 0.25 µg/mL ([3]; 0.25 μg/ml): 12%
inhibition at 0.5 µg/mL ([3]; 0.5 μg/ml): 49%
inhibition at 1 µg/mL ([3]; 1.0 μg/ml): 75%
inhibition at 2.5 µg/mL ([3]; 2.5 μg/ml): 87%
inhibition at 5 µg/mL ([3]; 5 μg/ml): 88%
inhibition at 10 µg/mL ([3]; 10 μg/ml): 90%
inhibition at 20 µg/mL ([3]; 20 μg/ml): 92%
IC50 ([3]; read-out: IC50 (concentration resulting in 50% inhibition of proliferation)): 0.5 µg/mL (≈ 0.842 µM)
Con A (counts per minute of incorporated 3H-thymidine) ([4]; 6.3 μg/ml): 299518 Counts per minute
Con A (counts per minute of incorporated 3H-thymidine) ([4]; 12.5 μg/ml): 213740 Counts per minute
Con A (counts per minute of incorporated 3H-thymidine) ([4]; 25 μg/ml): 11567 Counts per minute
Con A (counts per minute of incorporated 3H-thymidine) ([4]; 50 μg/ml): 10230 Counts per minute
suppression of Con A stimulation of human PBL (in words) [4, 10]: suppressed
PHA (counts per minute of incorporated 3H-thymidine) ([5]; 6.3 μg/ml): 441580 Counts per minute
PHA (counts per minute of incorporated 3H-thymidine) ([5]; 12.5 μg/ml): 391633 Counts per minute
PHA (counts per minute of incorporated 3H-thymidine) ([5]; 25 μg/ml): 14425 Counts per minute
PHA (counts per minute of incorporated 3H-thymidine) ([5]; 50 μg/ml): 16984 Counts per minute
suppression of PHA stimulation of human PBL (in words) [5, 10]: suppressed
viability [6]: > 91%
viability ([7]; 0.5 μg/ml): 151%
viability ([7]; 5 μg/ml): 68%
viability ([7]; 50 μg/ml): 26%
viability ([7]; 500 μg/ml): < 1%
toxicity in the murine assay (in words) (murine splenocytes [8]; 0.5 μg/ml): no associated toxicity
toxicity in the murine assay (in words) (murine splenocytes [8]; 500, 50 and 5 μg/ml): with associated toxicity
immunosuppressive activity in the murine MLR (in words) (murine splenocytes [9]; 0.5 μg/ml): immunosuppressive
immunosuppressive activity in the murine MLR (in words) (murine splenocytes [9]; 500, 50 and 5 μg/ml): exhibited immunosuppressive activity
activity at 0.5 µg/mL (murine splenocytes [9]; Mus musculus, Splenocyte, 0.5 μg/ml, read-out: % MLR Control (percent of the control MLR response)): 18%
activity at 5 µg/mL (murine splenocytes [9]; Mus musculus, Splenocyte, 5 μg/ml, read-out: % MLR Control (percent of the control MLR response)): 25%
activity at 50 µg/mL (murine splenocytes [9]; Mus musculus, Splenocyte, 50 μg/ml, read-out: % MLR Control (percent of the control MLR response)): < 1%
activity at 500 µg/mL (murine splenocytes [9]; Mus musculus, Splenocyte, 500 μg/ml, read-out: % MLR Control (percent of the control MLR response)): < 1%
